Test results reported in US20050048508A1, “Trehalose receptor and method for detecting trehalose with the same” (KABUSHIKI KAISHA HAYASHIBARA SEIBUTSU KAGAKU KENKYUJO, priority 2002, published 2005).

Biological target: T1, T1R2 and T1R3 with G protein α-subunits (α15 and α16/Z chimeric protein) (Mus musculus, UniProt Q925D8+Q925I4, E350G/G527D/I706N/P352R/R175Q)
T1 construct: expressed in transfected cells; host or cells: 293 cells, RCB 1637 (human embryonic kidney)
T1 sequence (Q925I4 20-843 R175Q/E350G/P352R/G527D): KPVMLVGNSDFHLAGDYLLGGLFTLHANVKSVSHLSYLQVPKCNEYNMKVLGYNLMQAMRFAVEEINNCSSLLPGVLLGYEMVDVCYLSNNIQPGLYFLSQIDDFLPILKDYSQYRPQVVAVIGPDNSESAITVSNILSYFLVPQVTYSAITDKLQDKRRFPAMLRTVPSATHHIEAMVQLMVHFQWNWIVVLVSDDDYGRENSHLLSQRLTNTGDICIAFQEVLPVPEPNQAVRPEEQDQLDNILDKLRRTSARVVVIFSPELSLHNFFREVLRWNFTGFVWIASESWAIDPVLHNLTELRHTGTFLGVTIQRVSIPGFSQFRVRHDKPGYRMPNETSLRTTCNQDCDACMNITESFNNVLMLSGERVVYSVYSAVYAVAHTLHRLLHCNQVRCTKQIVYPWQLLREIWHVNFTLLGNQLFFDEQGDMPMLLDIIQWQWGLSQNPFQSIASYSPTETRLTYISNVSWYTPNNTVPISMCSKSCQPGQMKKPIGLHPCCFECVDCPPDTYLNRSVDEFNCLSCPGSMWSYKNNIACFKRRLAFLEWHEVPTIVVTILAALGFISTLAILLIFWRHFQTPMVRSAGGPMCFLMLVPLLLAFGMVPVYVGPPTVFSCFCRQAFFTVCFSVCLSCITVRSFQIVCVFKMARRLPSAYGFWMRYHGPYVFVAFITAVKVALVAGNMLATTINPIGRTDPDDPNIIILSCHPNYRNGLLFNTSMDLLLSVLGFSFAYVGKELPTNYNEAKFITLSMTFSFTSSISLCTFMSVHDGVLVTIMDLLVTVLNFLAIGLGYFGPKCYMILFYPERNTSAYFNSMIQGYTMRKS
T1 sequence (Q925D8 21-858 I706N): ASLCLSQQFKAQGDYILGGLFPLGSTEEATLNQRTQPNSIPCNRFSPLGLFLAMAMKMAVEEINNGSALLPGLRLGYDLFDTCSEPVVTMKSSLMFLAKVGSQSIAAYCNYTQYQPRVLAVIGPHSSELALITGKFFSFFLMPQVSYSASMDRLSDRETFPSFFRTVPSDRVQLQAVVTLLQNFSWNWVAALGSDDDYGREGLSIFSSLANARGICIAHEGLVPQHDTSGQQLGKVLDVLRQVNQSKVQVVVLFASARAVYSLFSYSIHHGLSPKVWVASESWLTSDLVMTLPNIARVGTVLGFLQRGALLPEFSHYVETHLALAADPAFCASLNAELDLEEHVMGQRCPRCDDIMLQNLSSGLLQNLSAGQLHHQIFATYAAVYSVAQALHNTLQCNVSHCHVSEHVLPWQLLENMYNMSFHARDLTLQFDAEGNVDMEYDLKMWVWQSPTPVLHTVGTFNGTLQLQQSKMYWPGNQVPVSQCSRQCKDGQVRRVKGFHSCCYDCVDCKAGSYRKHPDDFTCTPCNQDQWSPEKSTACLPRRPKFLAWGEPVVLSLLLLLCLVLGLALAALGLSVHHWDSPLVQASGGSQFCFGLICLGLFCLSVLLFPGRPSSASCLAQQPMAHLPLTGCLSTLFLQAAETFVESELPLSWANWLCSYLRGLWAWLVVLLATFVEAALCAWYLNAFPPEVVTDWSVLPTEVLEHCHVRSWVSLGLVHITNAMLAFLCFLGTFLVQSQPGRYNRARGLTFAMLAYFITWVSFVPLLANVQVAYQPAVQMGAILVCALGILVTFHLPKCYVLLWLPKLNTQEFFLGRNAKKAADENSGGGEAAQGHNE
Assay: Intracellular calcium ion assay, 293 cells coexpressing G protein α-subunits, T1R2 and T1R3
Type: cell-based
Conditions: 293 cells: T1R2 + T1R3 + G protein α-subunits, 0.67 ml of 1 M saccharide solution added to 2 ml cell suspension, FLUO-4 AM
Description: The coexpression vector for the G protein α-subunit α15 and the G protein α16/Z chimeric protein (hereinafter designated as “G protein α-subunits”) obtained in Example 1-3 was gene transferred to 293 cells, RCB 1637, a human embryonic kidney cell line, available from the Riken Bioresource Center, Ibaraki, Japan, by conventional lipofection. The gene transferred cells were suspended in Dulbecco's Modified Eagle's Medium (D-MEM) supplemented with 1 mg/L of “PUROMYCIN”, a trade mane of puromycin commercialized by Edge Biosystems, MD, USA, and 10% (v/v) of fetal calf serum to give a cell density of 2×10^6 cells/ml and cultured in a plastic petri dish for cell culture. After 10 to 14 days of incubation, a puromycin-resistant cell colony was collected and confirmed its production of the G protein α-subunit proteins with an index of their mRNA level by conventional RT-PCR. Thus, a cell line capable of expressing the G protein α-subunit proteins was established. To the cells were gene transferred an expression vector for the sweet taste receptor protein T1R1, T1R2, or T1R3 in Example 2-2; or a coexpression vector for a pair of T1R1 and T1R2, T1R1 and T1R3, or T1R2 and T1R3 by conventional lipofection. The resulting cells were suspended in D-MEM supplemented with 1 mg/L of “PUROMYCIN”, 500 mg/L of “GENETICIN”, and 10% (v/v) of fetal calf serum and cultured in a plastic petri dish for cell culture. […]
The captioned reactivity test was conducted according to a conventional intracellular calcium ion assay: 293 Cells prepared in Example 3, capable of coexpressing the G protein α-subunits and the sweet taste receptor(s), were cultured in a plastic petri dish for cell culture until reaching its confluent phase. […] Two milliliters of the resultant cell suspension was injected into a glass cuvette, commercialized by Hitachi, Ltd., Tokyo, Japan, and analyzed on “HITACHI 650-40”, a fluorescence spectrophotometer commercialized by Hitachi, Ltd., Tokyo, Japan. […]

| Compound | Influx of calcium ion | Influx of calcium ion (listed as sucrose) |
| --- | --- | --- |
| OC[C@H]1O[C@@](CO)(O[C@H]2O[C@H](CO)[C@@H](O)[C@H](O)[C@H]2O)[C@@H](O)[C@@H]1O [Sucrose, reference compound] | Positive | detected |
| OC[C@H]1O[C@H](O[C@H]2O[C@H](CO)[C@@H](O)[C@H](O)[C@H]2O)[C@H](O)[C@@H](O)[C@@H]1O [Trehalose] | Positive |  |
